Consider seven molecules from patent US8946142B2, “Beta-arrestin effectors and compositions and methods of use thereof” (Trevena, Inc., priority 2012, dated 2015).

In experiment [1] the target is T1, human AT1R (Homo sapiens, UniProt P30556).
T1 sequence (P30556 1-359): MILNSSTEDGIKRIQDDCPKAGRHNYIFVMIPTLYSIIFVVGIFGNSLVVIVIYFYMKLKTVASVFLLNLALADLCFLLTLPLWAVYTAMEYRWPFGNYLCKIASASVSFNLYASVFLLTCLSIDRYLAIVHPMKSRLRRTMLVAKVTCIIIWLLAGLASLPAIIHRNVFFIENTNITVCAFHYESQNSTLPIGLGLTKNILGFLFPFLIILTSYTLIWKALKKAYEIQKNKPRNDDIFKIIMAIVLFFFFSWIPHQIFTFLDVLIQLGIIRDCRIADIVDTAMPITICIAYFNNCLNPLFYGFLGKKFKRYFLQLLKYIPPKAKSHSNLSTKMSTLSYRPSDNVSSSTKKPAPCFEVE
As to the kind of experiment: beta-arrestin2 recruitment assay (PathHunter), human AT1R. Conditions: for Emax: 1 h, read-out: Span (relative to hAngII). It counts as cell-based. How it is done: (§1) The proximal event in β-arrestin function mediated by GPCRs is recruitment to receptors following ligand binding and receptor phosphorylation by GRK's. Thus, the measure of β-arrestin recruitment was used to determine ligand efficacy for β-arrestin function.
(§2) B-arrestin-2 recruitment to the human and rat angiotensin 2 type 1 receptor (human AT1R and rat AT1aR, respectively) was measured with the PathHunter™ μl-arrestin assay (DiscoveRx Corporation, Fremont Calif.). Cells, plasmid(s), and detection reagent(s) were purchased from DiscoveRx, and assays were performed per manufacturer's instructions. Human AT1R and rat AT1aR were cloned into the pCMV-ProLink vector, verified by sequencing, and transfected into PathHunter β-arrestin HEK293 cells. Stably transfected clonal cell lines were selected with Hygromycin and G418. These clonal cell lines were used for all experiments.
(§3) For assays, 4,000-8,000 cells were seeded per well in 384-well microplates “HiBase” small-volume plate in volumes of 20 uL and grown overnight in the incubator (37° C., 5% CO2, saturated humidity). Peptides were dissolved in DMSO to a concentration of 10 mM. Peptides were then further diluted in assay buffer (Hank's balanced salt solution with 20 mM HEPES) to add peptide to the cells to reach final concentrations ranging from 100 μM to 1 pM. Cells were then incubated for 60 minutes at 37° C. in 5% CO2, followed by addition of 2 μL of PathHunter Detection Reagent to each well. The microplates were then incubated at room temperature for 60 minutes, and then luminescence was measured using a PHERAstar Plus microplate reader from BMG Labtech. B-arrestin-2 recruitment to receptors was measured as relative luminescence intensity expressed in arbitrary units.
Background: Recruitment of arrestin is a read-out of receptor activation apart from second messengers.

In experiment [2] the target is T2, rat AT1aR (Rattus norvegicus, UniProt P25095).
T2 sequence (P25095 1-359): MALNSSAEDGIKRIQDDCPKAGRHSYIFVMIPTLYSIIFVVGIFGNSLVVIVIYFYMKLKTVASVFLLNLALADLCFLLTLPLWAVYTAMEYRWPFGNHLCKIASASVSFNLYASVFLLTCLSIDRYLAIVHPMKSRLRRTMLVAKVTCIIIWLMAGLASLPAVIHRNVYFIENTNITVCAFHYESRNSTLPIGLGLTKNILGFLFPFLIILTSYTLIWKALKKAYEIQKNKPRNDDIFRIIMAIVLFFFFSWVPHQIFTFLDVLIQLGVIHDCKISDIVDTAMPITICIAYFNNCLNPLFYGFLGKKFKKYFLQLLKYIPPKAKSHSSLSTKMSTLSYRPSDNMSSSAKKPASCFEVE
As to the kind of experiment: beta-arrestin2 recruitment assay (PathHunter), rat AT1aR. It counts as cell-based. The conditions noted are these: for Emax: 1 h, read-out: Span (relative to hAngII). How it is done: as §1, §2, §3

Molecules are shown by their SMILES. Read-outs that look alike come from different tables or passages of the source. Where a SMILES comes first, the peptide text is derived from it. [ ]: non-standard residue; d: D form. Tle = CC(C)(C)[C@H](N)C(=O)O; Ac6c = NC1(C(=O)O)CCCCC1; Aib = CC(C)(N)C(=O)O; Sar = CNCC(=O)O

For the molecule `CNCC(=O)N[C@@H](CCCNC(=N)N)C(=O)N[C@H](C(=O)N[C@@H](Cc1ccc(O)cc1)C(=O)NC1(C(=O)N[C@@H](Cc2c[nH]cn2)C(=O)N2CCC[C@H]2C(=O)N[C@@H](CCCCN)C(=O)O)CCCCC1)C(C)C` [SEQ ID NO: 50, Sar-Arg-Val-Tyr-cyHex-His-Pro-Lys] (H-[Sar]RVY[Ac6c]HPK-OH), the Emax is less than 101% in experiment [1] and less than 105% in experiment [2]. The EC50 was more than 3.2 nM in experiment [1] (read-out: EC50), more than 3.16 nM in experiment [1] (read-out: pEC50 (converted)), more than 3.2 nM in experiment [2] (read-out: EC50) and more than 3.16 nM in experiment [2] (read-out: pEC50 (converted)).

As for `CNCC(=O)N[C@@H](CCCNC(=N)N)C(=O)N[C@H](C(=O)N[C@@H](Cc1ccc(O)cc1)C(=O)NC1(C(=O)N[C@@H](Cc2c[nH]cn2)C(=O)N2CCC[C@H]2C(=O)N[C@@H](CS)C(=O)O)CCCCC1)C(C)C` [SEQ ID NO: 34, Sar-Arg-Val-Tyr-cyHex-His-Pro-Cys] (H-[Sar]RVY[Ac6c]HPC-OH), the figures for the Emax in experiment [1] and in experiment [2] were less than 101% and less than 105%, respectively. Further, the EC50 in experiment [1] (read-out: EC50) was more than 3.2 nM; in experiment [1] (read-out: pEC50 (converted)), more than 3.16 nM; in experiment [2] (read-out: EC50) it was more than 3.2 nM; in experiment [2] (read-out: pEC50 (converted)), more than 3.16 nM.

Consider `CNCC(=O)N[C@@H](CCCNC(=N)N)C(=O)N[C@H](C(=O)N[C@@H](Cc1ccc(O)cc1)C(=O)N[C@H](C(=O)N[C@@H](Cc1c[nH]cn1)C(=O)N1CCC[C@H]1C(=O)N[C@H](C(=O)O)[C@@H](C)O)C(C)(C)C)C(C)C` [SEQ ID NO: 30, Sar-Arg-Val-Tyr-AA02-His-Pro-Thr] (H-[Sar]RVY[Tle]HPT-OH), for which the figures for the Emax in experiment [1] and in experiment [2] were less than 101% and less than 105%, respectively. The EC50 in experiment [1] (read-out: EC50) is more than 3.2 nM; in experiment [1] (read-out: pEC50 (converted)), more than 3.16 nM; in experiment [2] (read-out: EC50), more than 3.2 nM; in experiment [2] (read-out: pEC50 (converted)) it was more than 3.16 nM.

As for `CNCC(=O)N[C@@H](CCCNC(=N)N)C(=O)N[C@H](C(=O)N[C@@H](Cc1ccc(O)cc1)C(=O)NC(C)(C)C(=O)N[C@@H](Cc1c[nH]cn1)C(=O)N1CCC[C@H]1C(=O)N[C@H](C(=O)O)[C@@H](C)O)C(C)C` [SEQ ID NO: 40, Sar-Arg-Val-Tyr-AA01-His-Pro-Thr] (H-[Sar]RVY[Aib]HPT-OH), the Emax was less than 101% in experiment [1] and less than 105% in experiment [2]. Also, the EC50 in experiment [1] (read-out: EC50) was more than 3.2 nM; in experiment [1] (read-out: pEC50 (converted)), more than 3.16 nM; in experiment [2] (read-out: EC50), more than 3.2 nM; in experiment [2] (read-out: pEC50 (converted)), more than 3.16 nM.

For the molecule `CCNC(=O)[C@@H]1CCCN1C(=O)[C@H](Cc1c[nH]cn1)NC(=O)C1(NC(=O)[C@H](Cc2ccc(O)cc2)NC(=O)[C@@H](NC(=O)[C@H](CCCNC(=N)N)NC(=O)CNC)C(C)C)CCCCC1` [SEQ ID NO: 48, Sar-Arg-Val-Tyr-cyHex-His-Pro-NH-ethyl] (H-[Sar]RVY[Ac6c]HP-NHEt), the figures for the Emax in experiment [1] and in experiment [2] were less than 101% and less than 105%, respectively. Moreover, the EC50 in experiment [1] (read-out: EC50) is more than 3.2 nM; in experiment [1] (read-out: pEC50 (converted)), more than 3.16 nM; in experiment [2] (read-out: EC50), more than 3.2 nM; in experiment [2] (read-out: pEC50 (converted)), more than 3.16 nM.

For `CNCC(=O)N[C@@H](CCCNC(=N)N)C(=O)N[C@H](C(=O)N[C@@H](Cc1ccc(O)cc1)C(=O)NC1(C(=O)N[C@@H](Cc2c[nH]cn2)C(=O)N2CCC[C@H]2C(=O)NCC(=O)O)CCCCC1)C(C)C` [SEQ ID NO: 32, Sar-Arg-Val-Tyr-cyHex-His-Pro-Gly] (H-[Sar]RVY[Ac6c]HPG-OH), the Emax in experiment [1] is less than 101%; in experiment [2], less than 105%. Also, the EC50 in experiment [1] (read-out: EC50) was more than 3.2 nM; in experiment [1] (read-out: pEC50 (converted)), more than 3.16 nM; in experiment [2] (read-out: EC50) it was more than 3.2 nM; in experiment [2] (read-out: pEC50 (converted)) it was more than 3.16 nM.

Consider `CNCC(=O)N[C@@H](CCCNC(=N)N)C(=O)N[C@H](C(=O)N[C@@H](Cc1ccc(O)cc1)C(=O)NC1(C(=O)N[C@@H](Cc2c[nH]cn2)C(=O)N2CCC[C@H]2C(=O)N[C@@H](CC(N)=O)C(=O)O)CCCCC1)C(C)C` [SEQ ID NO: 36, Sar-Arg-Val-Tyr-cyHex-His-Pro-Asn] (H-[Sar]RVY[Ac6c]HPN-OH), for which the Emax in experiment [1] is less than 101%; in experiment [2], less than 105%. Besides, the EC50 in experiment [1] (read-out: EC50) is more than 3.2 nM; in experiment [1] (read-out: pEC50 (converted)), more than 3.16 nM; in experiment [2] (read-out: EC50) it was more than 3.2 nM; in experiment [2] (read-out: pEC50 (converted)) it was more than 3.16 nM.
